Marks after values point to notes of the source that are not given here.

From patent publication US7279497B2, “Benzopyran derivatives substituted with secondary amines including imidazole, their preparation and pharmaceutical compositions containing them” (Korea Research Institute of Chemical Technology, priority 2002, dated 2007) come the findings set out here.

In one data set the test system is isolated rat aorta. The experiment in a line: Vasorelaxation effects on isolated blood vessels (methoxamine induced vasoconstriction). Conditions: rat aorta constricted with methoxamine (3 μM). On the procedure:
The following experiment was conducted to examine whether the compounds of the formula 1 have vasorelaxation effects.
Male Sprague-Dawly rats (350-450 g, obtained from the Experimental Animal Team of the Korea Research Institute of Chemical Technology) were knocked unconscious by hitting the occipital region, sacrificed by cervical dislocation, and underwent thoracotomy. After being quickly removed, the thoracic aorta was deprived of the adipose tissue and cut into aortic rings of 3 mm width. The aorta was lightly rubbed with a modified Krebs Henseleit buffer (Physiological Salt Solution, PSS) soaked cotton club to remove the inner epithelial layer therefrom. While being suspended in an organ bath containing a physiological buffer, the vascular tissue was allowed to equilibrate under a resting tension of 2 g and then, stand for 1 hour at 37° C. for stabilization with a supply of a carbogen consisting of 95% O2-5% CO2.
Thereafter, the vascular tissue was constricted with 10^−5 M phenylephrine and washed several times with PSS and this procedure was repeated again to ensure the stable reactivity of vascular smooth muscle to repetitive constriction/dilatation.
In addition, 3×10^−6 M methoxamine was used to induce an intensive constriction in the vascular smooth muscle. When the vasoconstriction induced by the methoxamine reached and maintained a maximum, test compounds and controls were cumulatively added to the organ baths in concentrations of 1, 3, 10 and 30 μM so as to induce vasodilatation. Cromakalim, BMS-180448, and BMS-191095 were used as the controls.
Following the addition of test compounds, the change in the maximal constriction induced by methoxamine was calculated to plot a concentration-relaxation response curve. Through a linear regression analysis, IC50, the drug concentration at which the vascular tissue is 50% dilated, was obtained for each compound.

Data set [1] has as its system HUVECs (Human umbilical vein endothelial cells). The experiment in a line: Inhibitory effects on HUVEC tube formation.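 As to tube formation: from minus no inhibition up to plus-plus-plus complete inhibition versus vehicle.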 Conditions: for inhibitory effect on HUVEC tube formation: 50 uM. The format is cell-based. How it is done: The Inhibitory effects of the compounds of the formula 1 on angiogenesis were meassured by the vascular tube formation assay of HUVECs (Human umbilical vein endothelial cells), which is one of the major angiogenic steps.
HUVECs were isolated from human umbilical vein, and cultured. HUVECs within passage 5 from confluent cultures were detached, and plated onto a layer of a bFGF (basic fibroblast growth factor)-reduced and polymerized Matrigel. Matrigel cultures were incubated with or without the compounds of formula 1, and the changes of cell morphology were captured through a phase contrast microscope and photographed.

The next data set has as its system SPF SD rats. Conditions: rat, in vivo, po.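 Also: Six-week-old animals, two per group, followed across an observation period.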
A short description of data set [2]: Changes of body weight in nude mice implanted A549. The format is in vivo, nude mice (BALB/c nu/nu). Conditions: 50 mg/Kg. From the text: (§1) Nude mice (BALB/c nu/nu, male) were purchased from Charls River Japan, Inc., and housed and treated under SPF (Special Pathogen Free) facilities according to the regulation of NIH (national institutes of health). A549 cells isolated from human non small cell lung cancer (NSCLC) were purchased from ATCC ([…], USA), and maintained as an exponentially growing monolayer in Korea Research Institute of Chemical Technology. Effects of the compounds of present invention on implanted tumor growth were measured by the comparison of tumor sizes, in addition, the changes of body weights and survival % of nude mice were observed.
The effects of the compounds of the formula 1 on changes of body weights were determined. Body weights of nude mice were measured using AND balance at 5 day intervals starting from the date of administration of compounds, and represented as a mean value of treated group […], respectively.

The test system of the next data set is A549 implanted mice. The experiment in a line: Survival % in A549 implanted mice. Format: in vivo. Conditions: for Survival %: 50 mg/Kg.
Source text: as §1
Survival percents were represented using following mathematical formula 2, where N0 is the number of mice at the first day of administration, and Nn is the number of mice at n days after administration. Survival %=Nn/N0×100 [Mathematical formula 2]

The subject of a further data set is A549 NSCLC. The data set can be described thus: Inhibition on A549 NSCLC growth in nude mice xenografts. The format is in vivo, nude mice (BALB/c nu/nu). Conditions: for Inhibition (%) of tumor volume: 50 mg/Kg; for Tumor volume: 50 mg/Kg i.p. once daily day 1 to day 20. On the procedure:
Human tumor xenograft experiments were performed to evaluate whether the compounds of the formula 1 inhibit growth of human tumors implanted in nude mice.
as §1
Nude mice had been adjusted to the laboratory for 2-3 weeks after purchase, and all procedures were performed on male mice of 8 weeks of age, within a weight range of 18-20 g.
A549 tumor xenografts were established in the right flank of mice by subcutaneous injection of cells in 3×3×3 mm^3 size of culture. 24 hours after cell implantation, the administration of the compounds was started and which day is defined as day 1. Nude mice were injected intraperitoneally with the compound of example 23 (50 mg/kg) or vehicle (PBS containing 0.5% tween 80) once daily from day 1 to day 20. Tumor volume (V) was assessed by caliper measurement using the mathematical formula 1, where a was the longest diameter across the tumor and b was the corresponding perpendicular short diameter. Volume (mm^3)=a×b^2/2 [Mathematical Formula 1]
Inhibition (%) was calculated as (1−(VT)n/−(VC)n)×100, where (VT)n and (VC)n were the mean tumor volume of treated and control group at n days after administration of the compound. Each group consisted of 8 mice, and statistical significance was represented as student-T test (* p<0.05).

With `CC1(C)Oc2ccc(C#N)cc2C(N(Cc2ncc[nH]2)c2ccc(Cl)cc2)[C@H]1O` (stereo partly drawn) [BMS-191095], the IC50 (usually the midpoint of a concentration-inhibition curve) in the data set with isolated rat aorta stood at 2140 nM.
Still for that read-out and setting: next, `CC1(C)Oc2ccc(C#N)cc2C(N2CCCC2=O)C1O` (stereo not drawn) [Cromakalim]: 67 nM.
`COC(OC)[C@@]1(C)Oc2ccc([N+](=O)[O-])cc2[C@@H](N(Cc2ncc[nH]2)c2ccccc2C(C)C)[C@@H]1O` [Example 10, (2S,3S,4R)-3,4-dihydro-2-dimethoxymethyl-3-hydroxy-2-methyl-6-nitro-4-[N-(2-isopropylphenyl)-N-(1H-imidazol-2-ylmethyl)amino]-2H-1-benzopyran]: the “inhibitory effect on HUVEC tube formation” value in data set [1] is on record as “strongly inhibited”. In data set [1] (50 μM), the Tube formation result was “++”. In addition, in the data set on SPF SD rats, the “clinical symptoms, body weight and mortality” value (from here on “clinical symptoms”) is given as “no significant changes”.
As to `COC(OC)[C@]1(C)Oc2ccc([N+](=O)[O-])cc2[C@H](N(Cc2ncc[nH]2)c2cccc(C)c2C)[C@H]1O` [Example 12, (2R,3R,4S)-3,4-dihydro-2-dimethoxymethyl-3-hydroxy-2-methyl-6-nitro-4-[N-(2,3-dimethylphenyl)-N-(1H-imidazol-2-ylmethyl)amino]-2H-1-benzopyran], the Tube formation result in data set [1] (50 μM) was “+”. Moreover, the “clinical symptoms” value with SPF SD rats is on record as “no significant changes”.
As for `COC(OC)[C@]1(C)Oc2ccc([N+](=O)[O-])cc2[C@H](N(Cc2ncc[nH]2)c2ccc(Br)cc2)[C@H]1O` [Example 13, (2R,3R,4S)-3,4-dihydro-2-dimethoxymethyl-3-hydroxy-2-methyl-6-nitro-4-[N-(4-bromophenyl)-N-(1H-imidazol-2-ylmethyl)amino]-2H-1-benzopyran], the Tube formation entry in data set [1] (50 μM) is recorded as “+”. In addition, the “clinical symptoms” value in the data set with SPF SD rats is “no significant changes”.
`COC(OC)[C@@]1(C)Oc2ccc(C#N)cc2[C@@H](N(Cc2ncc[nH]2)c2ccc(Cl)cc2)[C@@H]1O` [Example 22, (2S,3S,4R)-6-cyano-3,4-dihydro-2-dimethoxymethyl-3-hydroxy-2-methyl-4-[N-(4-chlorophenyl)-N-(1H-imidazol-2-ylmethyl)amino]-2H-1-benzopyran]: the Tube formation entry in data set [1] (10 μM) was “+”; in data set [1] (100 μM), “++”. The “clinical symptoms” value with SPF SD rats is listed as “no significant changes”.
For the compound `COC(OC)[C@]1(C)Oc2ccc(N)cc2[C@H](N(Cc2ncc[nH]2)c2ccc(Cl)cc2)[C@H]1O` [Example 23, (2R,3R,4S)-6-amino-3,4-dihydro-2-dimethoxymethyl-3-hydroxy-2-methyl-4-[N-(4-chlorophenyl)-N-(1H-imidazol-2-ylmethyl)amino]-2H-1-benzopyran], the “inhibitory effect on HUVEC tube formation” value in data set [1] was “didn't show any tube like structures”. In data set [1] (50 μM), the Tube formation entry was “+++”. For the same compound, in data set [2], the “retardation or loss of body weight gain” value is listed as “not observed”. Further, the Body weight was determined as 22.30 g in data set [2] (1 day), 25.42 g in data set [2] (14 days), 26.17 g in data set [2] (25 days) and 27.10 g in data set [2] (35 days). The “clinical symptoms” value with SPF SD rats is “no significant changes”. Further, the Survival % with A549 implanted mice (1 day), in the data set with A549 implanted mice (5 days), with A549 implanted mice (15 days) and in the data set on A549 implanted mice (20 days) was 100% throughout. Besides, the survival rate with A549 implanted mice (table 6) amounted to 100%. Further, the “Inhibition (%) of tumor volume” value was “(40%)” in the data set on A549 NSCLC (25 days), “(39%)” in the data set with A549 NSCLC (35 days), “(50%)” with A549 NSCLC (45 days) and “(52%)” with A549 NSCLC (65 days). Also, the Tumor volume is 92.2 mm^3 with A549 NSCLC (25 days), 186.8 mm^3 with A549 NSCLC (35 days), 244.3* mm^3 in the data set with A549 NSCLC (45 days) and 494.8* mm^3 with A549 NSCLC (65 days). The “Inhibition of A549 NSCLC growth” value in the data set on A549 NSCLC (from 45 days to 61 days after implantation) is reported as 50-52%.
On to `COC(OC)[C@]1(C)Oc2ccc(N)cc2[C@H](N(Cc2ncc[nH]2)c2ccc(OC(F)(F)F)cc2)[C@H]1O` [Example 26, (2R,3R,4S)-6-amino-3,4-dihydro-2-dimethoxymethyl-3-hydroxy-2-methyl-4-[N-(4-trifluoromethoxyphenyl)-N-(1H-imidazol-2-ylmethyl)amino]-2H-1-benzopyran], for which the Tube formation result in data set [1] (50 μM) is “+”. Further, the “clinical symptoms” value with SPF SD rats is on record as “no significant changes”.
Take `COC(OC)[C@]1(C)Oc2ccc(N)cc2[C@H](N(Cc2ncc[nH]2)c2cccc(C)c2C)[C@H]1O` [Example 27, (2R,3R,4S)-6-amino-3,4-dihydro-2-dimethoxymethyl-3-hydroxy-2-methyl-4-[N-(2,3-dimethylphenyl)-N-(1H-imidazol-2-ylmethyl)amino]-2H-1-benzopyran]: the Tube formation entry in data set [1] (50 μM) was “+/−”. For the same compound, the “clinical symptoms” value with SPF SD rats is recorded as “no significant changes”.
`COc1ccc(N(Cc2ncc[nH]2)[C@H]2c3cc(N)ccc3O[C@@](C)(C(OC)OC)[C@@H]2O)cc1` [Example 28, (2R,3R,4S)-6-amino-3,4-dihydro-2-dimethoxymethyl-3-hydroxy-2-methyl-4-[N-(4-methoxyphenyl)-N-(1H-imidazol-2-ylmethyl)amino]-2H-1-benzopyran]: in data set [1] (50 μM), the Tube formation result is listed as “+”. The “clinical symptoms” value with SPF SD rats is given as “no significant changes”.
On the same counts, the results for `COC(OC)[C@]1(C)Oc2ccc(N)cc2[C@H](N(Cc2ncc[nH]2)c2ccc(Br)cc2)[C@H]1O` [Example 29, (2R,3R,4S)-6-amino-3,4-dihydro-2-dimethoxymethyl-3-hydroxy-2-methyl-4-[N-(4-bromophenyl)-N-(1H-imidazol-2-ylmethyl)amino]-2H-1-benzopyran] are “+” and “no significant changes”.
